Measured values published in patent publication US8440610B2, “Mapkap kinase-2 as a specific target for blocking proliferation of P53-defective cells” (Massachusetts Institute of Technology, priority 2004, dated 2013).

Legend:
p53−/− MEFs = assay: FACS cell cycle analysis (PI, phospho-histone H3) in p53−/− MEFs; format: cell-based, mouse; conditions: MK2 depleted p53−/− MEFs; 10 μM drug, nocodazole added three hours later, thirty hours
Description: FACS analysis. UV irradiation was performed at 254 nm (UV-C) using a Stratalinker 2400 (Stratagene). U2OS cells were fixed in 70% ethanol overnight at −20° C., permeabilized with PBS containing 0.2% Triton X-100 for twenty minutes at 4° C., blocked with 2% FBS in PBS, and incubated with 1 μg of anti-phospho-histone H3 per 10^6 cells for sixty minutes on ice. Following washing, cells were incubated with FITC-conjugated goat anti-rabbit antibody (diluted 1:500) for thirty minutes on ice, washed, and resuspended in PBS containing 50 μg/ml PI for twenty minutes immediately prior to FACS analysis. Analysis was performed using a Becton Dickinson FACS machine with CellQuest software.
To investigate the molecular mechanisms involved in MK2 dependent responses to DNA lesions, we examined cell cycle profiles of control and MK2 depleted p53^−/− MEFs. Asynchronous MK2- or control knock-down p53^−/− MEFs were mock treated or exposed to doxorubicin for thirty hour, and cell cycle distribution monitored by FACS. In one set of experiments the spindle poison nocodazole was added to the media three hours after addition of doxorubicin, to cause any cells progressing through the cell cycle to arrest in mitosis. DNA content was monitored by PI staining; phospho-histone-H3 staining was used as an indicator of mitotic entry. […]

U2OS cells = assay: Clonogenic survival assay in U2OS cells; format: cell-based, human; conditions: 10 μM cisplatin or 1 μM doxorubicin for eight hours, colonies after eight days
Description: The experiments in FIGS. 15A-15C and 16A-16D indicate that MAPKAP kinase-2 is critical for cisplatin- and doxorubicin-triggered G1/S and G2/M arrest. These checkpoint defects in MAPKAP kinase-2 depleted cells might render them more sensitive to the antiproliferative and cytotoxic effects of chemotherapy. To investigate this, control or MAPKAP kinase-2 knockdown U2OS cells were mock treated or incubated with increasing doses of cisplatin or doxorubicin for eight hours, washed, trypsinized and replated, and assayed for colony formation eight days later (FIGS. 16A-16B). […] For example, luciferase shRNA cells treated with either 10 μM cisplatin or 1 μM doxorubicin formed ˜40% of the number of colonies as those formed by untreated cells, while in MAPKAP kinase-2-depleted cells, these same cisplatin and doxorubicin treatments reduced the number of colonies to only 4% and 2%, respectively, of those seen in the untreated cells.
Clonogenic survival assay. Cells were either mock-treated or treated with increasing doses of doxorubicin or cisplatin. After eight hours of treatment, cells were washed three times with growth media and three times with PBS, trypsinized and replated at a concentration of 5000 cells/10 cm^2 dish. After eight days, cells were fixed and stained with 0.1% crystal violet (Sigma-Aldrich). Colonies consisting of >50 cells were counted, and surviving fractions were determined by normalization against untreated cells. Experiments were performed in triplicate and are plotted as mean values with standard deviations indicated by the error bars.

[1] = tested on: H-Ras-V12 transformed p53−/− MEFs; assay: Tumor regression assay of established tumors in nude mice; format: in vivo; conditions: MK2 depleted tumors; for tumor diameter at start of treatment: before treatment; for tumor diameter after fourteen days of treatment: cisplatin 2 mg/kg or doxorubicin 4 mg/kg intraperitoneal 3× per week
Description: For tumor regression assays, H-Ras-V12 transformed p53^−/− MEFs were stably transfected with a lentiviral transfer vector encoding for shRNA targeting either MAPKAP kinase-2 or luciferase. 10^6 cells were injected into the flanks of nude mice as above, and tumors were allowed to form for twelve days. Mice were then treated with either cisplatin (2 mg/kg, intraperitoneal administration 3× per week) or doxorubicin (4 mg/kg, intraperitoneal administration 3× per week), monitored for a total of twenty-six days, and then sacrificed. Tumor diameter was measured periodically during growth and tumors were weighed at the endpoint. Experiments were performed in quadruplicate, and data plotted as sample means with error bars showing standard deviation.
We investigated whether the chemo-sensitizing effect of MK2 depletion in p53 null cells in culture could also be observed when pre-existing p53 deficient tumors were treated with DNA damaging drugs in vivo. In these experiments HRas-V12 transformed p53^−/− MEFs were stably transfected with control shRNA or MK2 shRNA expressed from a murine U6 promoter, using a lentiviral delivering system (FIG. 18A). The lentiviral transfer vector also encoded GFP under the control of a CMV promoter, allowing for fluorescent detection of tumors in situ. Tumors were induced by injection of 10^6 cells into the flanks of nude mice. Twelve days later ˜1 cm diameter tumors had formed at all injection sites, and treatment with cisplatin, doxorubicin, or vehicle was begun (FIG. 18B). In the absence of treatment with DNA damaging drugs, the tumors arising from the MK2 depleted cells in the right flanks of these animals grew slightly larger than those of the luciferase shRNA control cells in the left flanks (FIG. 18B-18D). […] Tumors depleted of MK2 shrank from 1.3 cm to 0.4 cm over fourteen days when treated with cisplatin, and from 1.4 to 0.5 cm when treated with doxorubicin. Thus, the sensitizing effect of MK2 depletion on DNA damage induced cell death in p53-deficient primary cells observed in cell culture was also maintained in vivo.

[2] = MAPKAP kinase-2-depleted U2OS cells

Row | Structure (SMILES) | cells staining positively for phospho-histone H3 (p53−/− MEFs) [%] | number of colonies relative to untreated cells (U2OS cells; [2]) [%] | number of colonies relative to untreated cells (U2OS cells; luciferase shRNA U2OS cells) [%] | tumor diameter at start of treatment [1] [cm] | tumor diameter after fourteen days of treatment [1] [cm]
1 | N.N.[Cl][Pt][Cl] [cisplatin] | ~25 | 4 | ~40 | 1.3 | 0.4
2 | COc1cccc2c1C(=O)c1c(O)c3c(c(O)c1C2=O)C[C@@](O)(C(=O)CO)C[C@@H]3O[C@H]1C[C@H](N)[C@H](O)[C@H](C)O1 [doxorubicin] | 28.5 | 2 | ~40 | 1.4 | 0.5
